Values quoted from earlier work as cited in US5281578A, “Gallium compounds” (Johnson Matthey Public Limited Company, priority 1992, dated 1994).
Where two headings read alike, the source gives them in different places.

Columns and labels:
[1] = pH 4.5-7

absorption from the gastro-intestinal tract [1] | Compound | renal toxicity (renal toxicity; iv bolus) | renal toxicity (renal toxicity; seven day continuous iv infusion, cancer-associated hypercalcemia)
very poorly absorbed | [Ga+3] [gallium(III) aquo-ion] | – | –
– | [Ga] [gallium] | dose-limiting | no renal toxicity
